According to patent publication US20160038485A1, “PHASE 2 INDUCERS AND RELATED SIGNALING PATHWAYS PROTECT CARTILAGE AGAINST INFLAMMATION, APOPTOSIS AND STRESS” (THE JOHNS HOPKINS UNIVERSITY, priority 2006, published 2016):

Tested on: T/C28a2 chondrocytic cells
Assay: DNA microarray analysis of shear-induced mRNA response of chondrocytes
Type: cell-based, human
Settings: Wy14643 10 μM; 20 dyn/cm^2, 48 hours; cDNA microarray
Procedure: (§1) Cell Culture and Shear Stress Exposure: Human T/C28a2 chondrocytic cells were grown (37° C., 5% CO2) in 1:1 Ham's F-12/DMEM (Biowhittaker) supplemented with 10% FBS. Prior to shear exposure, T/C28a2 cells were incubated for 24 hours in serum-free medium containing 1% Nutridoma-SP (Roche), a low-protein serum replacement that maintains chondrocyte phenotype. Primary HUVECs were cultured as described (Goldring, M. B., 2004). T/C28a2 cells were exposed to shear stress in media containing 1% Nutridoma by use of a parallel-plate flow chamber with a recirculating flow loop (37° C., 5% CO2) (10). HUVECs were treated similarly by circulating media supplemented with 10% FBS.
Microarray Hybridization and Analysis: Cy-3- and Cy-5-labeled probes were mixed, dried, resuspended in hybridization buffer (50% formamide, 10×SSC, 0.2% SDS, COT-I DNA, Poly(A)-DNA), and denatured. The probes were added to microarray slides printed with a set of 32,448 or 39,936 expressed sequence tags (ESTs), allowed to hybridize at 42° C. overnight, and processed as described (Abulencia, J. P., et al. 2003. Hegde, P. et al. 2000). Expression ratios were derived using TIGR Spotfinder (Abulencia, J. P. et al. 2003, Hegde, P. et al. 2000). Differentially expressed genes were identified by Significance Analysis of Microarrays, and analyzed with the software TMEV (Abulencia, J. P. et al. 2003).
(§2) Quantitative Real-Time PCR (qRT-PCR) was used to verify DNA microarray data. Incorporation of SYBR Green into PCR products was monitored with the 7900HT detection system.

SMILES	shear-mediated up-regulation of JNK2 mRNA levels	shear-mediated up-regulation of c-Jun mRNA levels
Cc1cccc(Nc2cc(Cl)nc(SCC(=O)O)n2)c1C [Wy14643]	nearly abrogates	nearly abrogates

Tested on: T/C-28a2 cells
Assay: qRT-PCR transcript ratios (shear/static) in chondrocytes
Type: cell-based, human
Settings: Wy14643 10 μM pre-treatment; 20 dyn/cm^2, 48 h; mean + range (n = 2)
Procedure: as §1, §2
Cell Culture and shear stress exposure, microarray hybridization and analysis and quantitative real-time PCR (qRT-PCR) were carried out as in example 1. T/C-28a2 chondrocytes were pre-treated with a specific PPARα ligand, Wy14643 (10 μM) for 2 hours before being subjected to a shear stress level of 20 dyn/cm^2 for 48 hours in the presence of Wy14643. This pharmacological intervention abolished the shear-induced down regulation of the mRNA levels of Nrf2 and phase 2 genes and apoptosis as evidenced by the abrogation of shear-mediated changes of Bcl-w and pro-caspase-9 mRNA expression.

SMILES	Bcl-w (Bcl-2-like protein 2) qRT-PCR Transcript Ratio (Shear/Static)	COX-2 (cyclooxygenase-2) qRT-PCR Transcript Ratio (Shear/Static)	Caspase-9 precursor qRT-PCR Transcript Ratio (Shear/Static)	GCLR (glutamate-cysteine ligase) qRT-PCR Transcript Ratio (Shear/Static)	GST μ1 (glutathione-S-transferase class μ1) qRT-PCR Transcript Ratio (Shear/Static)	MMP-9 (matrix metalloproteinase-9) qRT-PCR Transcript Ratio (Shear/Static)	NQO1 (NAD(P)H:quinone oxidoreductase-1) qRT-PCR Transcript Ratio (Shear/Static)	Nrf2 (NF-E2 related factor 2) qRT-PCR Transcript Ratio (Shear/Static)	PGE2 Receptor Subtype EP4 qRT-PCR Transcript Ratio (Shear/Static)	PPARα qRT-PCR Transcript Ratio (Shear/Static)
Cc1cccc(Nc2cc(Cl)nc(SCC(=O)O)n2)c1C [Wy14643]	1.0 ± 0.1	1.3 ± 0.2	1.0 ± 0.1	1.2 ± 0.2	1.3 ± 0.2	1.3 ± 0.1	1.0 ± 0.1	1.6 ± 0.1	0.6 ± 0.1	1.1 ± 0.2

Same assay, conditions: Wy14643 10 μM pre-treatment; 20 dyn/cm^2, 48 h; mean + range (n = 2)

SMILES	iNOS (inducible Nitric Oxide Synthase II) qRT-PCR Transcript Ratio (Shear/Static)
Cc1cccc(Nc2cc(Cl)nc(SCC(=O)O)n2)c1C [Wy14643]	1.0 ± 0.2

Same assay, conditions: Wy14643 10 μM, 2 hours before and during 20 dyn/cm^2, 48 hours

SMILES	shear-induced down regulation of the mRNA levels of Nrf2 and phase 2 genes
Cc1cccc(Nc2cc(Cl)nc(SCC(=O)O)n2)c1C [Wy14643]	abolished

Same assay, conditions: Wy14643 10 μM; 20 dyn/cm^2, 48 hours

SMILES	shear-mediated changes of Bcl-w and pro-caspase-9 mRNA expression (apoptosis)
Cc1cccc(Nc2cc(Cl)nc(SCC(=O)O)n2)c1C [Wy14643]	abrogation

Tested on: ARE-driven NQO1 promoter
Assay: Promoter activity assay (pNQO1/ARE-luc)
Type: cell-based, human
Settings: transfected T/C28a2 cells; SFN 1.25 μM or D3T 5 μM, 24 h, static conditions
Procedure: Transient Transfection and Plasmid Constructs: T/C28a2 cells were transfected with 10 μg of plasmid and 2 μg of control with Lipofectamine and Plus Reagent (Invitrogen). Cells were allowed to recover for 3 hours, incubated overnight in medium containing 1% Nutridoma, and exposed to the indicated treatments. Efficiency was assessed by flow cytometry with pEGFP-N2 (BD Biosciences). pCMV-mNrf2 and pNQO1/ARE-luc constructs were provided by N. Wakabayashi (Wakabayashi, N. et al. 2004). Igarashi, K., et al. 1994), and pBJ M-pl 10*-myc, pBJ M<<pl 10-UR, and pCG pi 10 wt constructs were provided by A. Kippel (Hu, Q., et al. 1995).
Promoter Activity Assay: T/C28a2 cells were transfected with 10 μg of pNQO1/ARE-luc and 1 μg each of pEGFP-N2 and pSV40-hRL2 (Promega) to normalize transfection efficiency. Firefly and Renilla luciferase activities were measured using the Dual-Luciferase Report Assay kit (Promega).

SMILES	ARE-driven NQO1 promoter luciferase activity
C[S@@+]([O-])CCCCN=C=S [SFN, (−)-1-isothiocyanato-4(R)-(methylsulfinyl)-butane]	increases the luciferase activity

Tested on: NQO1
Assay: NQO1 enzyme activity in shear-activated chondrocytes
Type: cell-based, human
Settings: T/C28a2, high shear (20 dyn/cm^2); SFN 1.25 μM, D3T 5 μM, CAY10404 6.75 μM, NS398 30 μM
Procedure: as §1
(§3) Cell Viability, NQO1 activity, Glutathione levels, and Prostaglandin (PG)E2 production: Cell viability was monitored with the MTT assay (Gao, X. et al. 2001). NQO1 activity and total GSH (oxidized and reduced) levels of cell lysates were determined in 96-well microtiter plates. PGE2 levels were determined in media by the Prostaglandin E2 monoclonal EIA kit (Cayman Chemical).

SMILES	shear-induced suppression of NQO1 activity
C[S@@+]([O-])CCCCN=C=S [SFN, (−)-1-isothiocyanato-4(R)-(methylsulfinyl)-butane]	abolished
CS(=O)(=O)Nc1ccc([N+](=O)[O-])cc1OC1CCCCC1 [NS398]	indistinguishable from those with CAY10404
CS(=O)(=O)c1ccc(-c2noc(C(F)(F)F)c2-c2ccccc2)cc1 [CAY10404]	reduced the shear-induced down-regulation

Tested on: T/C28a2 cells
Assay: Total glutathione (GSH) levels in shear-activated chondrocytes
Type: cell-based, human
Settings: T/C28a2, high shear (20 dyn/cm^2); SFN 1.25 μM, CAY10404 6.75 μM, NS398 30 μM
Procedure: as §1, §3

SMILES	shear-induced suppression of intracellular GSH levels
C[S@@+]([O-])CCCCN=C=S [SFN, (−)-1-isothiocyanato-4(R)-(methylsulfinyl)-butane]	abolished
CS(=O)(=O)Nc1ccc([N+](=O)[O-])cc1OC1CCCCC1 [NS398]	indistinguishable from those with CAY10404
CS(=O)(=O)c1ccc(-c2noc(C(F)(F)F)c2-c2ccccc2)cc1 [CAY10404]	reduced the shear-induced down-regulation

Tested on: T/C28a2 cells
Assay: Shear-induced apoptosis: DNA fragmentation (TUNEL) and mitochondrial membrane depolarization
Type: cell-based, human
Settings: 20 dyn/cm^2, 48 h; D3T 5 μM, CAY10404 6.75 μM, NS398 30 μM
Procedure: as §1
DNA Fragmentation and Mitochondrial Depolarization: For DNA fragmentation, cells were fixed in 4% paraformaldehyde for 1 hour at 25° C., washed 2× in PBS, and permeabilized briefly in 0.1% Triton-X100/0.1% sodium citrate on ice. Subsequently, cells were washed 2× in PBS, labeled using the In Situ Cell Death Kit (Roche), and analyzed by flow cytometry. To quantify Mitochondrial Membrane Potential (MMP), cells were labeled using the MitoProbe JC-I Kit (Molecular Probes).

SMILES	shear-induced apoptosis (DNA fragmentation TUNEL, mitochondrial membrane depolarization MMP)
CS(=O)(=O)Nc1ccc([N+](=O)[O-])cc1OC1CCCCC1 [NS398]	marked reduction
CS(=O)(=O)c1ccc(-c2noc(C(F)(F)F)c2-c2ccccc2)cc1 [CAY10404]	marked reduction

Tested on: phase 2 genes
Assay: not given
Settings: cited from earlier work

SMILES	CD [µM]
CCOC(=O)CN=C=S [GHP 1061]	8.2
CS(=O)(=O)CCCCN=C=S [GHP 1007]	0.82
C[S+]([O-])CCCCCN=C=S (stereo not drawn) [GHP 1002]	0.94
O=CNc1ccc(N=C=S)cc1 [GHP 1033]	100
CSc1ccccc1CN=C=S [GHP 1046]	6.8
C[S+]([O-])CCCCN=C=S (stereo not drawn) [GHP 1005]	0.20
CP(C)(=O)CCCCN=C=S [GHP 1078]	0.43
CSCCCCCN=C=S [GHP 1001]	1.71
CS(=O)(=O)[C@H]1CCC[C@H](CN=C=S)C1 [GHP 1079]	0.48
COC(=O)C1CC2CC(N=C=S)C1C2 (stereo not drawn) [GHP 1069]	0.68
COc1cccc(OC)c1CN=C=S [GHP 1044]	5.8
S=C=NCc1ccccc1Cl [GHP 1048]	14.1
CCc1ccccc1CN=C=S [GHP 1053]	12.5
S=C=NCc1ccccc1Br [GHP 1049]	12.5
O=[N+]([O-])C1CC2CC1CC2N=C=S (stereo not drawn) [GHP 1072]	1.05
CSC(=O)CCCCN=C=S [GHP 1104]	2.8
OC1CC2CC1CC2N=C=S (stereo not drawn) [GHP 1077]	1.85
OC1CC2CC(N=C=S)C1C2 (stereo not drawn) [GHP 1076]	1.10
CC(=O)CCCCN=C=S [GHP 1105]	0.23
CS(=O)(=O)C1CC2CC1CC2N=C=S (stereo not drawn) [GHP 1064]	0.66
CCOC(=O)C(CCSC)N=C=S (stereo not drawn) [GHP 1074]	2.64
Cc1ccccc1CN=C=S [GHP 1050]	3.7
COc1ccccc1N=C=S [GHP 1031]	100
O=C(O)CCCCN=C=S [GHP 1103]	2.19
S=C=Nc1ccccc1Cl [GHP 1032]	100
CSCCc1ccccc1N=C=S [GHP 1023]	100

SMILES	CD [µM]
Fc1ccccc1CN=C=S [GHP 1047]	13.1
S=C=NC1CCc2ccccc21 (stereo not drawn) [GHP 1052]	38.9
COc1ccc(CN=C=S)cc1 [GHP 1043]	25
C[S+]([O-])CCCN=C=S (stereo not drawn) [GHP 1009]	2.36
CCCCC(=O)CCCCN=C=S [GHP 1081]	2.0
CSCc1ccccc1CN=C=S [GHP 1021]	4.3
CSCCCN=C=S [GHP 1008]	3.52
CS(=O)(=O)[C@H]1CC[C@@H](N=C=S)CC1 [GHF 1073]	0.44
CC(=O)C1CC2CC(N=C=S)C1C2 (stereo not drawn) [GHP 1066]	0.26
CN(C)c1ccccc1CN=C=S [GHP 1045]	12.5
COC(=O)CCCCN=C=S [GHP 1102]	2.81
CC(=O)C1CC2CC1CC2N=C=S (stereo not drawn) [GHP 1067]	0.43
N#CCCCCN=C=S [GHP 1101]	1.97
CSc1ccccc1CCN=C=S [GHP 1022]	7.4
CS(=O)(=O)C1CC2CC(N=C=S)C1C2 (stereo not drawn) [GHP 1068]	0.15
COc1cccc(CN=C=S)c1 [GHP 1042]	8.65
CCOc1ccccc1CN=C=S [GHP 1051]	2.5
COC(=O)C1CC2CC(N=C=S)C1C2 (stereo not drawn) [GHP 1070]	1.6
CC(O)C1CC2CC1CC2N=C=S (stereo not drawn) [GHP 1075]	0.45
CS(=O)(=O)CCCCCN=C=S [GHP 1003]	0.98
COc1ccccc1CN=C=S [GHP 1041]	2.41
CC(O)CCCCN=C=S (stereo not drawn) [GHP 1106]	0.35
N#CC1CC2CC1CC2N=C=S (stereo not drawn) [GHP 1071]	0.59
CS(=O)(=O)[C@H]1CCC[C@@H](CN=C=S)C1 [GHP 1080]	0.41
CS(=O)(=O)CCCN=C=S [GHP 1010]	1.32
